Source: US20040224958A1, “Pyridopyrimidinone derivatives for treatment of neurodegenerative disease” (priority 2000, published 2004)

What was measured:
cdk4/D = cdk4/D (Homo sapiens, UniProt P11802); experiment: Cyclin-Dependent Kinase 4 (cdk4) Assay; format: biochemical; conditions: read-out: cdk4/D IC50
Cdk5/p25 = Cdk5/p25 (Homo sapiens, UniProt Q00535); experiment: Cyclin-Dependent Kinase 5 High Throughput Screening (cdk5-HTS) Assay; format: biochemical; conditions: high throughput screen
Summary of the method: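 Cdk5/p25 (1.0 μg/mL) phosphorylates GST-RbCOOH (20 μg/mL) in 50 mM Tris pH 7.4 with 10 mM MgCl2 and 20 μM ATP spiked with [γ33P]ATP, 30 min at room temperature. After EDTA stop, substrate captured on glutathione-coated plates; 33P incorporation counted by scintillation; IC50 determined.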

cdk2/cyclinE = cdk2/cyclinE (Homo sapiens, UniProt P24941); experiment: Cyclin-Dependent Kinase Assay cdk2/cyclinE; conditions: cdk2/E IC50
cdk2/cyclinA = cdk2/cyclinA (Homo sapiens, UniProt P24941); experiment: Cyclin-Dependent Kinase Assay cdk2/cyclinA; conditions: cdk2/A IC50
cdc2/cyclinB = cdc2/cyclinB (Homo sapiens, UniProt P06493); experiment: Cyclin-Dependent Kinase Assay cdc2/cyclinB
Chain of cdc2/cyclinB (P06493 whole entry): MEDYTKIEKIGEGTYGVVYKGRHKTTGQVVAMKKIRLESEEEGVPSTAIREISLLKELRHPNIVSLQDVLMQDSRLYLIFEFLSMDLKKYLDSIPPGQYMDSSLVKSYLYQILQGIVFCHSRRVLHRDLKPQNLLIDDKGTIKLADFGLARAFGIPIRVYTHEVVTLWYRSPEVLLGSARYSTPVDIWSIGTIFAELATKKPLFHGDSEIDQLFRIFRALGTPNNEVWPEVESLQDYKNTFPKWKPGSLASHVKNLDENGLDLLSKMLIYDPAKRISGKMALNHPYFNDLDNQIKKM
Chain of cdc2/cyclinB (P14635 whole entry, further chain): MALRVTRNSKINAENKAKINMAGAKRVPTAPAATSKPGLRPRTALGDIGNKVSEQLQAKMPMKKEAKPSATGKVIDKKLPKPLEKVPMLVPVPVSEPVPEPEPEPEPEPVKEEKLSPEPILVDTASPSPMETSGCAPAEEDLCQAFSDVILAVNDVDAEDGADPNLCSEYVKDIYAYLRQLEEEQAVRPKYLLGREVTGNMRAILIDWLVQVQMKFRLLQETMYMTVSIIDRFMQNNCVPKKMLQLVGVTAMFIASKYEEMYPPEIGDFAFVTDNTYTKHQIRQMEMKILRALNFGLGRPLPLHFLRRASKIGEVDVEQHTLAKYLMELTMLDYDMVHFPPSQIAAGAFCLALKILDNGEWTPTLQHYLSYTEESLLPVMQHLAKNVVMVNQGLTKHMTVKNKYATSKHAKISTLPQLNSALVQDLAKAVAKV

Chain of cdk4/D (P11802 whole entry): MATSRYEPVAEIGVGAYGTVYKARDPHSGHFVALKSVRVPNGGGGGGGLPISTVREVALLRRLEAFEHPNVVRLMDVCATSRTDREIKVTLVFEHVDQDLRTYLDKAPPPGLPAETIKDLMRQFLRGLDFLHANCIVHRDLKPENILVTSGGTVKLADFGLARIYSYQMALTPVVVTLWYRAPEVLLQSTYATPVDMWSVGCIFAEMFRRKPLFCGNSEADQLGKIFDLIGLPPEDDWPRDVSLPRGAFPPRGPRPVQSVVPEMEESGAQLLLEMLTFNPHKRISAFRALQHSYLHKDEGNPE
Chain of cdk4/D (P24385 whole entry, further chain): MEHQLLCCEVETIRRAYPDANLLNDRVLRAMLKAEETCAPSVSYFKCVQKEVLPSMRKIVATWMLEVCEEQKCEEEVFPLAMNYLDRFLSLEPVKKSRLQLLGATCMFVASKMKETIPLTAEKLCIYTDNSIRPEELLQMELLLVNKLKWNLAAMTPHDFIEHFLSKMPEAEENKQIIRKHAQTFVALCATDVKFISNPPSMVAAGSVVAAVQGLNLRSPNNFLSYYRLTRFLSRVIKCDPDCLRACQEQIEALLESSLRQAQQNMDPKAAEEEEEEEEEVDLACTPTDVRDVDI

Row | IC50 (cdk4/D) [nM] | IC50 (Cdk5/p25) [nM] | IC50 (cdk2/cyclinE) [nM] | IC50 (cdk2/cyclinA) [nM] | IC50 (cdc2/cyclinB) [nM] | Compound
1 | 200 | 230 | 71 | 310 | 430 | Cc1ccc(Nc2ncc3ccc(=O)n(CC4CC4)c3n2)cc1NS(C)(=O)=O [Example 592, N-[5-(8-Cyclopropylmethyl-7-oxo-7,8-dihydro-pyrido[2,3-d]pyrimidin-2-ylamino)-2-methyl-phenyl]-methanesulfonamide]
2 | 720 | 84.7 | 48.9 | 408 | 107 | CCCCn1c(=O)ccc2cnc(Nc3cccc(I)c3)nc21 [Example 375, 8-Butyl-2-(3-iodo-phenylamino)-8H-pyrido[2,3-d]pyrimidin-7-one]
3 | 150 | 64 | 310 | 1300 | 330 | CCC(CC)n1c(=O)ccc2cnc(Nc3ccc(Br)c(Cl)c3)nc21 [Example 507, 2-(4-Bromo-3-chloro-phenylamino)-8-(1-ethyl-propyl)-8H-pyrido[2,3-d]pyrimidin-7-one]
4 | 1900 | 83 | 3900 | 920 | 700 | CC(C)n1c(=O)ccc2cnc(Nc3ccc(Cl)c(C(F)(F)F)c3)nc21 [Example 421, 2-(4-Chloro-3-trifluoromethyl-phenylamino)-8-isopropyl-8H-pyrido[2,3-d]pyrimidin-7-one]
5 | 240 | 87.5 | 60.3 | 255 | 200 | CCCCn1c(=O)ccc2cnc(Nc3ccccc3)nc21 [Example 364, 8-Butyl-2-phenylamino-8H-pyrido[2,3-d]pyrimidin-7-one]
6 | 420 | 92 | 280 | 890 | 520 | CCCn1c(=O)ccc2cnc(Nc3ccc(Br)c(Cl)c3)nc21 [Example 341, 2-(4-Bromo-3-chloro-phenylamino)-8-propyl-8H-pyrido[2,3-d]pyrimidin-7-one]
7 | 410 | 43 | 130 | 640 | 210 | CCn1c(=O)ccc2cnc(Nc3ccc(F)c(C)c3)nc21 [Example 294, 8-Ethyl-2-(4-fluoro-3-methyl-phenylamino)-8H-pyrido[2,3-d]pyrimidin-7-one]
8 | 385 | 290 | 193 | 510 | 365 | CC(C)(C)OC(=O)Nc1ccc(Nc2ncc3ccc(=O)n(CC4CC4)c3n2)cc1 [Example 565, [4-(8-Cyclopropylmethyl-7-oxo-7,8-dihydro-pyrido[2,3-d]pyrimidin-2-ylamino)-phenyl]-carbamic acid tert-butyl ester]
9 | 230 | 31 | 200 | 160 | 170 | CCC(C)n1c(=O)ccc2cnc(Nc3ccc(C)c(C)c3)nc21 (centres unmarked) [Example 476, 8-sec-Butyl-2-(3,4-dimethyl-phenylamino)-8Hi-pyrido[2,3-d]pyrimidin-7-one]
10 | 480 | 55.5 | 80 | 160 | 46.5 | CCC(CC)n1c(=O)ccc2cnc(Nc3cc(Cl)c(O)c(Cl)c3)nc21 [Example 497, 2-(3,5-Dichloro-4-hydroxy-phenylamino)-8-(1-ethyl-propyl)-8H-pyrido[2,3-d]pyrimidin-7-one]
11 | 230 | 92 | 110 | 120 | 120 | O=c1[nH]c2ccc(Nc3ncc4ccc(=O)n(CC5CC5)c4n3)cc2[nH]1 [Example 577, 8-Cyclopropylmethyl-2-(2-oxo-2,3-dihydro-1H-benzimidazol-5-ylamino)-8H-pyrido[2,3-d]pyrimidin-7-one]
12 | 230 | 88 | 350 | 1400 | 420 | CCCCn1c(=O)ccc2cnc(Nc3ccc(I)c(Cl)c3)nc21 [Example 398, 8-Butyl-2-(3-chloro-4-iodo-phenylamino)-8H-pyrido[2,3-d]pyrimidin-7-one]
13 | 260 | 52.5 | 94.7 | 160 | 113 | CC(C)n1c(=O)ccc2cnc(Nc3cccc([N+](=O)[O-])c3)nc21 [Example 406, 8-Isopropyl-2-(3-nitro-phenylamino)-8H-pyrido[2,3-d]pyrimidin-7-one]
14 | 1100 | 84 | 85 | 470 | 220 | CCCCn1c(=O)ccc2cnc(Nc3ccc(F)c(C(F)(F)F)c3)nc21 [Example 390, 8-Butyl-2-(4-fluoro-3-trifluoromethyl-phenylamino)-8H-pyrido[2,3-d]pyrimidin-7-one]
15 | 200 | 71 | 230 | 670 | 480 | CCC(CC)n1c(=O)ccc2cnc(Nc3ccc(OC(F)(F)F)cc3)nc21 [Example 515, 8-(1-Ethyl-propyl)-2-(4-trifluoromethoxy-phenylamino)-8H-pyrido[2,3-d]pyrimidin-7-one]
16 | 390 | 28 | 46 | 160 | 93 | CCC(CC)n1c(=O)ccc2cnc(Nc3cc(C)c(O)c(C)c3)nc21 [Example 523, 8-(1-Ethyl-propyl)-2-(4-hydroxy-3,5-dimethyl-phenylamino)-8H-pyrido[2,3-d]pyrimidin-7-one]
17 | 210 | 41 | 140 | 110 | 240 | CCC(C)n1c(=O)ccc2cnc(Nc3ccc(C#N)cc3)nc21 (centres unmarked) [Example 474, 4-(8-sec-Butyl-7-oxo-7,8-dihydro-pyrido[2,3-d]pyrimidin-2-ylamino)-benzonitrile]
18 | 100 | 8.8 | 56 | 260 | 76 | CCC(C)n1c(=O)ccc2cnc(Nc3ccc(C)c(I)c3)nc21 (centres unmarked) [Example 465]
19 | 65 | 8.8 | 5.1 | 15 | 29 | NS(=O)(=O)c1ccc(Nc2ncc3ccc(=O)n(CC4CC4)c3n2)cc1 [Example 571, 4-(8-Cyclopropylmethyl-7-oxo-7,8-dihydro-pyrido[2,3-d]pyrimidin-2-ylamino)-benzenesulfonamide]
20 | 830 | 110 | 330 | 630 | 160 | CCC(CC)n1c(=O)ccc2cnc(Nc3ccc(NC(C)=O)c(C)c3)nc21 [Example 513, N-{4-[8-(1-Ethyl-propyl)-7-oxo-7,8-dihydro-pyrido[2,3-d]pyrimidin-2-ylamino]-2-methyl-phenyl}-acetamide]
21 | 2150 | 214 | 208 | 1150 | 430 | CCCCn1c(=O)ccc2cnc(Nc3cccc(C(F)(F)F)c3)nc21 [Example 373, 8-Butyl-2-(3-trifluoromethyl-phenylamino)-8H-pyrido[2,3-d]pyrimidin-7-one]
22 | 415 | 63 | 36.3 | 152 | 101 | COc1ccc(Nc2ncc3ccc(=O)n(C4CCCCC4)c3n2)cc1OC [Example 613, 8-Cyclohexyl-2-(3,4-dimethoxy-phenylamino)-8H-pyrido[2,3-d]pyrimidin-7-one]
23 | 25 | 8.7 | 12 | 50.5 | 14.5 | CCC(CC)n1c(=O)ccc2cnc(Nc3ccc4[nH]c(=O)[nH]c4c3)nc21 [Example 493, 8-(1-Ethyl-propyl)-2-(2-oxo-2,3-dihydro-1H-benzimidazol-5-ylamino)-8H-pyrido[2,3-d]pyrimidin-7-one]
24 | 370 | 46 | 470 | 990 | 360 | CCCn1c(=O)ccc2cnc(Nc3ccc(I)c(Cl)c3)nc21 [Example 344, 2-(3-Chloro-4-iodo-phenylamino)-8-propyl-8H-pyrido[2,3-d]pyrimidin-7-one]
25 | 180 | 9.7 | 11 | 34 | 45 | CCCCn1c(=O)ccc2cnc(Nc3ccc(S(N)(=O)=O)cc3)nc21 [Example 393, 4-(8-Butyl-7-oxo-7,8-dihydro-pyrido[2,3-d]pyrimidin-2-ylamino)-benzenesulfonamide]
26 | 2000 | 40 | 250 | 1500 | 430 | CCn1c(=O)ccc2cnc(Nc3ccc(F)c(C(F)(F)F)c3)nc21 [Example 293, 8-Ethyl-2-(4-fluoro-3-trifluoromethyl-phenylamino)-8H-pyrido[2,3-d]pyrimidin-7-one]
27 | 12.7 | 36.3 | 46.5 | 74 | 34.5 | O=c1ccc2cnc(Nc3ccc4[nH]ccc4c3)nc2n1C1CCCC1 [Example 528, 8-Cyclopentyl-2-(1H-indol-5-ylamino)-8H-pyrido[2,3-d]pyrimidin-7-one]
28 | 290 | 55 | 16 | 14 | 36 | O=c1ccc2cnc(Nc3ccc(O)c([N+](=O)[O-])c3)nc2n1C1CCCC1 [Example 551, 8-Cyclopentyl-2-(4-hydroxy-3-nitro-phenylamino)-8H-pyrido[2,3-d]pyrimidin-7-one]
